We go through three compounds from publication PMC6073568, “Efficient Lead Finding, Activity Enhancement and Preliminary Selectivity Control of Nuclear Receptor Ligands Bearing a Phenanthridinone Skeleton” (International Journal of Molecular Sciences, 2018).

Like-named read-outs stand apart in the source and are kept apart here.

Usually IC50 stands for the point on the concentration scale where inhibition reaches its midpoint.

One experiment has as its target T1, GR (Homo sapiens, UniProt P04150).
T1 construct: expressed in transfected cells; host or cells: HEK293
T1 sequence (P04150 1-777): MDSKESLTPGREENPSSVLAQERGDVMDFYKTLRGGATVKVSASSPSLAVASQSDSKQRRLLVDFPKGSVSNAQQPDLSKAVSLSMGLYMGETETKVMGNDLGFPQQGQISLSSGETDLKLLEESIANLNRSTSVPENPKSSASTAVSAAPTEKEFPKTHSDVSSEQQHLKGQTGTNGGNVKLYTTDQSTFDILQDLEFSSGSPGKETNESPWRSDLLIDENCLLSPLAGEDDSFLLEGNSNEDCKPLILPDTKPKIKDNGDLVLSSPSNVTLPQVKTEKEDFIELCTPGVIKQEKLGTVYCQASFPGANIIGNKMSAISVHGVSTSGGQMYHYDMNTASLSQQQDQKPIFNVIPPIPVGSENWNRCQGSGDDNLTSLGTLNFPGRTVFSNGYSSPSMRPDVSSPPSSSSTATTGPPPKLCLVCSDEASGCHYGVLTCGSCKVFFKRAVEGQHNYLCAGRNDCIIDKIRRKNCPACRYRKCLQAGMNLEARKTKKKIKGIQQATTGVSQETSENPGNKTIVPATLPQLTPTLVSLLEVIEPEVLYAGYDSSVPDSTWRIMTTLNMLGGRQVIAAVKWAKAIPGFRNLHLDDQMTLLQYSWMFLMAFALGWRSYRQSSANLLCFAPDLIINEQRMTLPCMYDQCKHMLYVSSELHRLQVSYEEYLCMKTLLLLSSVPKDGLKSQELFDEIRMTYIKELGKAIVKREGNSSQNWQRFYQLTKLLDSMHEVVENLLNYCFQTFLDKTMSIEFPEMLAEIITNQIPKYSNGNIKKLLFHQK
The experiment in a line: GR reporter gene assay in HEK293. The experiment is classed as cell-based. To be noted: reporter gene assay, HEK293; agonist dexamethasone 1 nM; read-out: GR antagonistic activity (IC50). (In general: In a reporter assay the amount or activity of a reporter protein is the signal.)

For experiment [1], the system named is LNCaP cells (T877A mutation in the AR LBD). The experiment can be described thus: PSA level (ELISA) in LNCaP cell line. It is filed as cell-based, human. The note with it: for IC50: Homo sapiens, LNCaP, dihydrotestosterone 10 nM, 48 h, ± SEM. From the text:
Chronic administration of AR antagonists often leads to the development of resistance. […] In contrast, another AR antagonist, enzalutamide, was reported to antagonize AR mutant T877A [23]. Thus, development of a novel chemical class of AR antagonists, different from flutamide analogs seems an attractive approach for the treatment of AR antagonist-resistant cancer, providing further motivation to evaluate steroid surrogates. Therefore, we investigated the antiandrogenic activity of several potent AR antagonists by means of PSA (prostate-specific antigen, an AR-regulated gene) ELISA (enzyme-linked immunosorbent assay) in human prostate cancer cell line LNCaP, which has T877A mutation in the AR LBD.
The human prostate cancer cell line LNCaP (ECACC, London, UK) was routinely maintained in RPMI1640 containing 10% (v/v) fetal bovine serum, and penicillin/streptomycin at 37 °C in a humidified atmosphere of 5% CO2 in air. Cells were cultured in RPMI1640 without phenol red containing 10% (v/v) charcoal-stripped fetal bovine serum, and penicillin/streptomycin at 37 °C in a humidified atmosphere of 5% CO2 in air for 3 days. Then cells were plated in 96-well plates at 1 × 10^4 cells/well and incubated overnight. On the next day, cells were treated with fresh media containing test compound plus dihydrotestosterone (final concentration 10 nM), and incubated for 48 h. Then, PSA levels were measured in the culture supernatants, after 100-fold dilution with the medium, using ELISA (Immunospec Corp., CA, USA Free prostate-specific antigen cat. #E29-212) according to the manufacturer’s instructions. All data points were carried out twice in triplicate.
On the technique in general: ELISA stands for enzyme-linked immunosorbent assay.

Experiment [2] has as its target T2, LXRβ (Homo sapiens, UniProt P55055).
T2 construct: CMX-GAL4N-hLXRβ-LBD; expressed in transfected cells; host or cells: HEK293
T2 sequence (P55055 222-460 limits assumed): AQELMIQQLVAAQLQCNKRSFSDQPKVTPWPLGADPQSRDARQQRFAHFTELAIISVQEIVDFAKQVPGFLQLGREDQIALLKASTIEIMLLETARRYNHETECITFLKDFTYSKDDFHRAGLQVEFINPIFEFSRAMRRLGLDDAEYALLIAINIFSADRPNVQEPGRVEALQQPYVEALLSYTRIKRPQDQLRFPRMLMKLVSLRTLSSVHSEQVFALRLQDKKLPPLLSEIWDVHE
The note with it: read-out: LXRβ antagonistic activity (IC50); cited from earlier work.

Experiment [3] concerns the target T2, LXRβ. The experiment can be described thus: LXRβ reporter gene assay in HEK293. The experiment is classed as cell-based. The note with it: read-out: LXRβ antagonistic activity (IC50).
In the next experiment the target is T3, PR (Homo sapiens, UniProt P06401).
T3 sequence (P06401 1-933): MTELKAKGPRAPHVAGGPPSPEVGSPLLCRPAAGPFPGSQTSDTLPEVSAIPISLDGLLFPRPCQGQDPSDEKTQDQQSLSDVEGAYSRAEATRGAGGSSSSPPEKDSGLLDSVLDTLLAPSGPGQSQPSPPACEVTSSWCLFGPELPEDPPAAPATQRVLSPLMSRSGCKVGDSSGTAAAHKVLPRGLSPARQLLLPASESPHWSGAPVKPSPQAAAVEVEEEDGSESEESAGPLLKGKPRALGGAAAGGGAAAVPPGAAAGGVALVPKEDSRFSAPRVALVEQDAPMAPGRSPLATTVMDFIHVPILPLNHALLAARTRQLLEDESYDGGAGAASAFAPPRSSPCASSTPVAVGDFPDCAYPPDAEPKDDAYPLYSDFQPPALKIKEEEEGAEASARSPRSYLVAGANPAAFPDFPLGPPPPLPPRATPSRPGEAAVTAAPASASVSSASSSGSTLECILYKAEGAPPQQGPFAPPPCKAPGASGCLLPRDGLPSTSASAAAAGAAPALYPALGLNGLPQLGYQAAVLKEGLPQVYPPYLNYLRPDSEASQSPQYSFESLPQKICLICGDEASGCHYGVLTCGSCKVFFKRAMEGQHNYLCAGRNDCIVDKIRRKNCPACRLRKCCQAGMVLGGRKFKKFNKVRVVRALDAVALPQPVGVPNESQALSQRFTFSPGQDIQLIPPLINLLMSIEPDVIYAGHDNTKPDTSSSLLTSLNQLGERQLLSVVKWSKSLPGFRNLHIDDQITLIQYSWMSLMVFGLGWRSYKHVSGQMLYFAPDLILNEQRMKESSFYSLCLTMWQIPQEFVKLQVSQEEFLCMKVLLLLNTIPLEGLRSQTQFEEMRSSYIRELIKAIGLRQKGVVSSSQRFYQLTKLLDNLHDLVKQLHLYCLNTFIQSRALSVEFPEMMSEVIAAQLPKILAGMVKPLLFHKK
The experiment in a line: T-47D alkaline phosphatase assay (PR antagonism). The experiment is classed as cell-based. The note with it: alkaline phosphatase, T47D cells, progesterone 1 nM; new compound 43; read-out: PR antagonistic activity (IC50).

For the compound `O=c1[nH]c2ccc(C(O)(C(F)(F)F)C(F)(F)F)cc2c2ccccc12` [Compound 1], the IC50 at GR was greater than 20 µM; in experiment [1] it was greater than 10 µM; at LXRβ [2] it was 5.1 µM.

For the compound `Cn1c(=O)c2ccccc2c2cc(C(O)(C(F)(F)F)C(F)(F)F)ccc21` [Compound 13], the IC50 at GR is greater than 20 µM; in experiment [1], greater than 10 µM; on LXRβ [2] it was greater than 20 µM.

As to `O=c1[nH]c2c(Cl)cc(C(O)(C(F)(F)F)C(F)(F)F)cc2c2ccccc12` [Compound 43, 4-Chloro-2-(1,1,1,3,3,3-hexafluoro-2-hydroxypropan-2-yl)phenanthridin-6(5H)-one], the IC50 on LXRβ [3] is greater than 20 µM; on PR it was 350 nM; on GR, greater than 20 µM; in experiment [1], greater than 10 µM. Further, in experiment [1], the “antiandrogenic activity in LNCaP” value is “did not show antiandrogenic activity”.
